Reference: patent publication US12649750B2, “Macrocyclic compounds, compositions, and methods of using thereof” (Sionna Therapeutics Inc., priority 2022, dated 2026)

Assays:
CFTR = biological target: T1, CFTR (Homo sapiens, UniProt P13569, DEL508-508); assay: TECC24 AUC fold over DMSO @10 μM, CFTR-mediated transepithelial chloride transport in CF-HBE cells; type: cell-based; settings: test agent AUC divided by DMSO vehicle AUC, primary CF-HBE cells, ΔF508 homozygous donor, 48 hours incubation
T1 construct: Primary human bronchial epithelial cells from a ΔF508 homozygous CF donor; host or cells: primary human bronchial epithelial cells (CF-HBE), ΔF508 homozygous donor
T1 sequence (P13569 with tags, fused parts or gaps DEL508-508): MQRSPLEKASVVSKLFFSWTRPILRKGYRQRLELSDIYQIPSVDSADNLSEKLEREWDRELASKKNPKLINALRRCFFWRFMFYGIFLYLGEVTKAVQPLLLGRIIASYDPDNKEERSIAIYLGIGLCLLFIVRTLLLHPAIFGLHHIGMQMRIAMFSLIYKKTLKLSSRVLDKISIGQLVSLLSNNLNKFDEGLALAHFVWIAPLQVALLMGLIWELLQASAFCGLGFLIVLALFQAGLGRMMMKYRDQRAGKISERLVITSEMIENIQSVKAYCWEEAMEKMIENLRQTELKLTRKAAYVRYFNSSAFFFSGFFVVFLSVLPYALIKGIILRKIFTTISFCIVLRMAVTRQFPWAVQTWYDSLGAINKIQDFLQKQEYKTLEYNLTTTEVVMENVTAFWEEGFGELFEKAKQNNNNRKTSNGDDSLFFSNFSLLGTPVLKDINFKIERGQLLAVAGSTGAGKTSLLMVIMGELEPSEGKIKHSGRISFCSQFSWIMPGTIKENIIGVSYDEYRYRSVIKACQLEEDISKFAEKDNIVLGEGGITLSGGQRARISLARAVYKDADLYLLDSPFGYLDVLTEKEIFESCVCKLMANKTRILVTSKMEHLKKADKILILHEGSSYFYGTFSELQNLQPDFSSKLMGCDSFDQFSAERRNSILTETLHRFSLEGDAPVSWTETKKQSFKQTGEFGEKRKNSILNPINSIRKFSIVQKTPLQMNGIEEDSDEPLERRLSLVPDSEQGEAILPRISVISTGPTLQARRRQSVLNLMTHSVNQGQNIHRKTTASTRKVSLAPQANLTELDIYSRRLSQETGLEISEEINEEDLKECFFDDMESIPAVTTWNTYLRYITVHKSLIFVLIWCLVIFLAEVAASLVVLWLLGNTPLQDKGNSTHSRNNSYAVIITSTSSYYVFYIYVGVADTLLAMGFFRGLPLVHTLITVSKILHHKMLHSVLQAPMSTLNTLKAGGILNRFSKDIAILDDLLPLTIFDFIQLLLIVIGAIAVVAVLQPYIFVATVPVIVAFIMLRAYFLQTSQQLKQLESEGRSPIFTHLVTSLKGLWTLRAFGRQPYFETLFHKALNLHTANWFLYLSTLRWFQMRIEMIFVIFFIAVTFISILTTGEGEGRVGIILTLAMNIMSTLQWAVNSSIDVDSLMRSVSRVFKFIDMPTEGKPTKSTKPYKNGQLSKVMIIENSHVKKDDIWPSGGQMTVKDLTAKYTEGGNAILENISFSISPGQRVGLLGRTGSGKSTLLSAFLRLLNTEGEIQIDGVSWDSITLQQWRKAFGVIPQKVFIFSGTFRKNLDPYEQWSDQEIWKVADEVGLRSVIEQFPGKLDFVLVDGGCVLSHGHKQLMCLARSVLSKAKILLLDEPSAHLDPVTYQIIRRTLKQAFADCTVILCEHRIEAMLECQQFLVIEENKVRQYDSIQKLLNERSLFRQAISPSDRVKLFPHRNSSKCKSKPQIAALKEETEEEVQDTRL
In short: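 ΔF508-homozygous primary bronchial epithelial cells incubated 48 h at 36.5° C with compound (10 μM) in IL-13-containing medium, then TECC24 current-clamp recording in pH 7.4 Hepes saline with benzamil 10 μM, forskolin 10 μM, then CFTR inhibitor-172 20 μM. Equivalent Cl− current AUC between forskolin and inhibitor, expressed as fold over DMSO.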

NBD1 = biological target: T2, NBD1 (Homo sapiens, UniProt P13569); assay: Aggregation analysis using differential static light scattering (DSLS), thermal stability of NBD1 (ΔTagg); type: binding; settings: ΔTagg versus DMSO control, NBD1 0.2 mg/ml
T2 construct: Purified recombinant NBD1 was produced using previously described methods; made in house
T2 sequence (P13569 423-646 limits assumed): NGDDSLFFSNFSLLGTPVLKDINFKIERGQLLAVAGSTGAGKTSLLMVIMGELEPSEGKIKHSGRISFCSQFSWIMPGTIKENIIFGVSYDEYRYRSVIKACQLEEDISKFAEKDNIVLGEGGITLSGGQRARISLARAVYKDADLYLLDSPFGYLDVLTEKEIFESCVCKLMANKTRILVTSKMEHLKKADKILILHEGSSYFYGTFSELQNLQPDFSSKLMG
In short: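 NBD1 0.2 mg/ml, S200 buffer (50 mM Tris-HCl, 150 mM NaCl, 5 mM MgCl2, 2 mM ATP, 2 mM DTT, pH7.6) + 1% glycerol; cpd in DMSO; oil overlay. Ramp 25→70° C. at 1° C./min, DSLS images every 0.5° C. ΔTagg = Tagg (inflection) − mean DMSO Tagg.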

Row | Structure (SMILES) | TECC (AUC, 10 μM) (CFTR) | DSLS 3D (100 μM ΔT) (NBD1)
1 | COC(Cc1cccc(C2(C)CCCC(C)(C)CS(=O)(=O)CCc3c(c(F)cc4[nH]ccc34)Oc3ccc(F)c(c3)-c3nc2nn3C)c1)C(=O)O (single isomer, unassigned) [Compound 135A, 3-[3-(22,28-Difluoro-3,6,10,10-tetramethyl-12,12-dioxo-24-oxa-12λ6-thia-3,4,19,30-tetrazapentacyclo-[23.3.1.12,5.015,23.016,20]triaconta-1(29),2(30),4,15,17,20,22,25,27-nonaen-6-yl)phenyl]-2-methoxy-propanoic Acid] | A (a TECC value less than 12 is marked “A”) | A (an ΔTagg value less than or equal to 5 °C is marked “A”)
2 | COC(Cc1cccc(C2(C)CCCC(C)(C)CS(=O)(=O)CCc3c(c(F)cc4[nH]ccc34)Oc3ccc(F)c(c3)-c3nc2nn3C)c1)C(=O)O (single isomer, unassigned) [Compound 135B, 3-[3-(22,28-Difluoro-3,6,10,10-tetramethyl-12,12-dioxo-24-oxa-12λ6-thia-3,4,19,30-tetrazapentacyclo-[23.3.1.12,5.015,23.016,20]triaconta-1(29),2(30),4,15,17,20,22,25,27-nonaen-6-yl)phenyl]-2-methoxy-propanoic Acid] | C (a value between 20 and 80 is marked “C”) | C (a value greater than 10 °C and less than or equal to 25 °C is marked “C”)
3 | CC(Cc1cccc(C2(CN)CCCC(C)(C)CS(=O)(=O)CCc3c(c(F)cc4[nH]ccc34)Oc3ccc(F)c(c3)-c3nc2nn3C)c1)C(=O)O (single isomer, unassigned) [Compound 136A, 3-[3-[6-(aminomethyl)-22,28-difluoro-3,10,10-trimethyl-12,12-dioxo-24-oxa-12λ6-thia-3,4,19,30-tetrazapentacyclo-[23.3.1.12,5.015,23.016,20]triaconta-1(29),2(30),4,15,17,20,22,25,27-nonaen-6-yl]phenyl]-2-methyl-propanoic Acid] | A (a TECC value less than 12 is marked “A”) | A (an ΔTagg value less than or equal to 5 °C is marked “A”)
4 | CC(Cc1cccc(C2(CN)CCCC(C)(C)CS(=O)(=O)CCc3c(c(F)cc4[nH]ccc34)Oc3ccc(F)c(c3)-c3nc2nn3C)c1)C(=O)O (single isomer, unassigned) [Compound 136B, 3-[3-[6-(aminomethyl)-22,28-difluoro-3,10,10-trimethyl-12,12-dioxo-24-oxa-12λ6-thia-3,4,19,30-tetrazapentacyclo-[23.3.1.12,5.015,23.016,20]triaconta-1(29),2(30),4,15,17,20,22,25,27-nonaen-6-yl]phenyl]-2-methyl-propanoic Acid] | C (a value between 20 and 80 is marked “C”) | C (a value greater than 10 °C and less than or equal to 25 °C is marked “C”)
5 | CC(Cc1cccc(C2(CNCC(F)F)CCCC(C)(C)CS(=O)(=O)CCc3c(c(F)cc4[nH]ccc34)Oc3ccc(F)c(c3)-c3nc2nn3C)c1)C(=O)O (single isomer, unassigned) [Compound 137B, 3-[3-[6-[(2,2-difluoroethylamino)methyl]-22,28-difluoro-3,10,10-trimethyl-12,12-dioxo-24-oxa-12λ6-thia-3,4,19,30-tetrazapentacyclo[23.3.1.12,5.015,23.016,20]triaconta-1(29),2(30),4,15,17,20,22,25,27-nonaen-6-yl]phenyl]-2-methyl-propanoic Acid] | A (a TECC value less than 12 is marked “A”) | B (a value above 5 °C and less than or equal to 10 °C is marked “B”)
6 | CC(C)OC(=O)[C@@H](C)Cc1cccc(C2(C)CCCC(C)(C)CS(=O)(=O)CCc3c(c(F)cc4[nH]ccc34)Oc3ccc(F)c(c3)-c3nc2nn3C)c1 (single isomer, unassigned) [Compound 139] | C (a value between 20 and 80 is marked “C”) | B (a value above 5 °C and less than or equal to 10 °C is marked “B”)
7 | C[C@@H](Cc1cccc(C2(C)CCCC(C)(C)CS(=O)(=O)CCc3c(c(F)cc4[nH]ccc34)Oc3ccc(F)c(c3)-c3nc2nn3C)c1)C(=O)OCCO (single isomer, unassigned) [Compound 140] | B (a value between 12-20 is marked “B”) | C (a value greater than 10 °C and less than or equal to 25 °C is marked “C”)
8 | C[C@@H](Cc1cccc(C2(C)CCCC(C)(C)CS(=O)(=O)CCc3c(c(F)cc4[nH]ccc34)Oc3ccc(F)c(c3)-c3nc2nn3C)c1)C(=O)OCC(O)CO (single isomer, unassigned) [Compound 141] | B (a value between 12-20 is marked “B”) | C (a value greater than 10 °C and less than or equal to 25 °C is marked “C”)
9 | C[C@@H](Cc1cccc(C2(C)CCCC(C)(C)CS(=O)(=O)CCc3c(c(F)cc4[nH]ccc34)Oc3ccc(F)c(c3)-c3nc2nn3C)c1)C(=O)OCCN1CCOCC1 (single isomer, unassigned) [Compound 142] | B (a value between 12-20 is marked “B”) | B (a value above 5 °C and less than or equal to 10 °C is marked “B”)
10 | C[C@@H](Cc1cccc(C2(C)CCCC(C)(C)CS(=O)(=O)CCc3c(c(F)cc4[nH]ccc34)Oc3ccc(F)c(c3)-c3nc2nn3C)c1)C(=O)OCCN1CCN(C)CC1 (single isomer, unassigned) [Compound 143] | B (a value between 12-20 is marked “B”) | B (a value above 5 °C and less than or equal to 10 °C is marked “B”)
11 | C[C@@H](Cc1cccc(C2(C)CCCC(C)(C)CS(=O)(=O)CCc3c(c(F)cc4[nH]ccc34)Oc3ccc(F)c(c3)-c3nc2nn3C)c1)C(=O)OCc1coc(=O)o1 (single isomer, unassigned) [Compound 144] | B (a value between 12-20 is marked “B”) | C (a value greater than 10 °C and less than or equal to 25 °C is marked “C”)
12 | C[C@@H](Cc1cccc(C2(C)CCCC(C)(C)CS(=O)(=O)CCc3c(c(F)cc4[nH]ccc34)Oc3ccc(F)c(c3)-c3nc2nn3C)c1)C(=O)OCOC(=O)C(C)(C)C (single isomer, unassigned) [Compound 145] | C (a value between 20 and 80 is marked “C”) | A (an ΔTagg value less than or equal to 5 °C is marked “A”)
13 | C[C@@H](Cc1cccc(C2(C)CCCC(C)(C)CS(=O)(=O)CCc3c(c(F)cc4[nH]ccc34)Oc3ccc(F)c(c3)-c3nc2nn3C)c1)C(=O)NS(C)(=O)=O (single isomer, unassigned) [Compound 146] | A (a TECC value less than 12 is marked “A”) | C (a value greater than 10 °C and less than or equal to 25 °C is marked “C”)
14 | CONC(=O)[C@@H](C)Cc1cccc(C2(C)CCCC(C)(C)CS(=O)(=O)CCc3c(c(F)cc4[nH]ccc34)Oc3ccc(F)c(c3)-c3nc2nn3C)c1 (single isomer, unassigned) [Compound 147] | A (a TECC value less than 12 is marked “A”) | C (a value greater than 10 °C and less than or equal to 25 °C is marked “C”)
15 | C[C@@H](Cc1cccc(C2(C)CCCC(C)(C)CS(=O)(=O)CCc3c(c(F)cc4[nH]ccc34)Oc3ccc(F)c(c3)-c3nc2nn3C)c1)C(=O)NOCC(O)CO (single isomer, unassigned) [Compound 148] | C (a value between 20 and 80 is marked “C”) | C (a value greater than 10 °C and less than or equal to 25 °C is marked “C”)
16 | CNC(=O)[C@@H](C)Cc1cccc(C2(C)CCCC(C)(C)CS(=O)(=O)CCc3c(c(F)cc4[nH]ccc34)Oc3ccc(F)c(c3)-c3nc2nn3C)c1 (single isomer, unassigned) [Compound 149] | A (a TECC value less than 12 is marked “A”) | C (a value greater than 10 °C and less than or equal to 25 °C is marked “C”)
17 | C[C@@H](Cc1cccc(C2(C)CCCC(C)(C)CS(=O)(=O)CCc3c(c(F)cc4[nH]ccc34)Oc3ccc(F)c(c3)-c3nc2nn3C)c1)C(=O)NS(=O)(=O)C1CC1 (single isomer, unassigned) [Compound 150] | A (a TECC value less than 12 is marked “A”) | C (a value greater than 10 °C and less than or equal to 25 °C is marked “C”)
18 | COCC(Cc1cccc(C2(C)CCCC(C)(C)CS(=O)(=O)CCc3c(c(F)cc4[nH]ccc34)Oc3ccc(F)c(c3)-c3nc2nn3C)c1)C(=O)O (single isomer, unassigned) [Compound 153A, 2-[[3-(22,28-difluoro-3,6,10,10-tetramethyl-12,12-dioxo-24-oxa-12λ6-thia-3,4,19,30-tetrazapentacyclo[23.3.1.12,5.015,23.016,20]triaconta-1(29),2(30),4,15,17,20,22,25,27-nonaen-6-yl)phenyl]methyl]-3-methoxy-propanoic Acid] | C (a value between 20 and 80 is marked “C”) | C (a value greater than 10 °C and less than or equal to 25 °C is marked “C”)
